Reference: PubChem BioAssay AID248 (DTP/NCI, 2004)
“And” between values parts separate entries of the source, which are not always exact repeats. Equal values may be shown once. Inconclusive results and toxic doses are left out. Cut-off read from the data, not from the text of the source: active = T/C of 150% or more; inactive = T/C below 125%.

System: L1210 leukemia ip in BDF1 mice, survival T/C
Test: NCI In Vivo Anticancer Drug Screen. Data for tumor model L1210 Leukemia (intraperitoneal) in B6D2F1 (BDF1) mice
Settings: endpoint: mean survival time, higher = longer survival
Outline: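 Survival endpoint. Drug-treated group vs vehicle group, expressed as T divided by C. Tumor passaged by transplantation.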

[1] = dose: 100.0 mg/kg/injection, schedule: Q01DX009 (ip), vehicle: Klucel (hydroxypropylcellulose) (HPC)
[2] = dose: 100.0 mg/kg/injection, schedule: Q04DX003 (ip), vehicle: Klucel (hydroxypropylcellulose) (HPC)
[3] = dose: 200.0 mg/kg/injection, schedule: Q01DX009 (ip), vehicle: Klucel (hydroxypropylcellulose) (HPC)
[4] = dose: 200.0 mg/kg/injection, schedule: Q04DX003 (ip), vehicle: Klucel (hydroxypropylcellulose) (HPC)
[5] = dose: 400.0 mg/kg/injection, schedule: Q01DX009 (ip), vehicle: Klucel (hydroxypropylcellulose) (HPC)
[6] = dose: 400.0 mg/kg/injection, schedule: Q04DX003 (ip), vehicle: Klucel (hydroxypropylcellulose) (HPC)
[7] = dose: 100.0 mg/kg/injection, schedule: Q01DX001 (ip), vehicle: saline
[8] = dose: 200.0 mg/kg/injection, schedule: Q01DX001 (ip), vehicle: saline
[9] = dose: 400.0 mg/kg/injection, schedule: Q01DX001 (ip), vehicle: saline
[10] = dose: 100.0 mg/kg/injection, schedule: Q04DX003 (ip), vehicle: saline with Tween-80
[11] = dose: 200.0 mg/kg/injection, schedule: Q04DX003 (ip), vehicle: saline with Tween-80
[12] = dose: 400.0 mg/kg/injection, schedule: Q04DX003 (ip), vehicle: saline with Tween-80
[13] = dose: 100.0 mg/kg/injection, schedule: Q01DX001 (ip), vehicle: saline with Tween-80
[14] = dose: 100.0 mg/kg/injection, schedule: Q01DX009 (ip), vehicle: saline with Tween-80
[15] = dose: 100.0 mg/kg/injection, schedule: Q04DX002 (ip), vehicle: saline with Tween-80
[16] = dose: 200.0 mg/kg/injection, schedule: Q01DX001 (ip), vehicle: saline with Tween-80
[17] = dose: 200.0 mg/kg/injection, schedule: Q01DX009 (ip), vehicle: saline with Tween-80
[18] = dose: 200.0 mg/kg/injection, schedule: Q04DX002 (ip), vehicle: saline with Tween-80
[19] = dose: 400.0 mg/kg/injection, schedule: Q01DX009 (ip), vehicle: saline with Tween-80

Measured: T/C

CCC(CC)NC(C)CO (stereo not drawn)
inactive: dose: 75.0 mg/kg/injection, schedule: Q01DX001 (ip), vehicle: acid diluted with saline 105 % of control | dose: 150.0 mg/kg/injection, schedule: Q01DX001 (ip), vehicle: acid diluted with saline 103 % of control | dose: 300.0 mg/kg/injection, schedule: Q01DX001 (ip), vehicle: acid diluted with saline 103 % of control

CC(=O)C1CCCC23CC(CC12)C(C)(C)C3OC=O (stereo not drawn)
inactive: [1] 96 % of control | [2] 90 % of control | [3] 100 % of control | [4] 92 % of control | [5] 107 % of control | [6] 95 % of control

CNNC(=O)c1ccccc1
inactive: dose: 6.25 mg/kg/injection, schedule: Q04DX002 (ip), vehicle: saline 119 % of control | dose: 12.5 mg/kg/injection, schedule: Q04DX002 (ip), vehicle: saline 97 % of control | dose: 25.0 mg/kg/injection, schedule: Q04DX002 (ip), vehicle: saline 97 % of control | dose: 50.0 mg/kg/injection, schedule: Q04DX002 (ip), vehicle: saline 94 % of control and 97 % of control | dose: 100.0 mg/kg/injection, schedule: Q04DX002 (ip), vehicle: saline 98 % of control

COC(=O)C1=NN(c2ccccc2)CC1
inactive: [7] 98 % of control | dose: 100.0 mg/kg/injection, schedule: Q04DX003 (ip), vehicle: other 88 % of control | [8] 106 % of control | dose: 200.0 mg/kg/injection, schedule: Q04DX003 (ip), vehicle: other 94 % of control | [9] 90 % of control | dose: 400.0 mg/kg/injection, schedule: Q04DX003 (ip), vehicle: other 94 % of control

CC12CCC3c4ccc(O)cc4CCC3C1CCC2=O (stereo not drawn)
inactive: dose: 100.0 mg/kg/injection, schedule: Q01DX001 (sc), vehicle: steriod suspending solution 92 % of control | dose: 200.0 mg/kg/injection, schedule: Q01DX001 (sc), vehicle: steriod suspending solution 92 % of control | dose: 400.0 mg/kg/injection, schedule: Q01DX001 (sc), vehicle: steriod suspending solution 86 % of control

FC(F)(F)c1nn[nH]n1
inactive: [10] 101 % of control | [11] 108 % of control | [12] 103 % of control

COC1OC2COc3ccccc3OC2C(N=Cc2ccccc2)C1O (stereo not drawn)
inactive: [10] 102 % of control | [11] 102 % of control | [12] 98 % of control

COc1ccc(OC)c(NC(=O)c2cccc3ccccc23)c1
inactive: dose: 50.0 mg/kg/injection, schedule: Q01DX001 (ip), vehicle: saline with Tween-80 102 % of control | [13] 91 % of control | [14] 93 % of control and 96 % of control | [15] 100 % of control and 91 % of control | [10] 95 % of control | [16] 95 % of control | [17] 105 % of control and 90 % of control | [18] 113 % of control and 91 % of control | [11] 95 % of control | [19] 87 % of control and 91 % of control | dose: 400.0 mg/kg/injection, schedule: Q04DX002 (ip), vehicle: saline with Tween-80 94 % of control and 95 % of control | [12] 94 % of control

O=C(O)c1ccccc1[N+](=O)[O-].[Ag]
inactive: dose: 12.5 mg/kg/injection, schedule: Q04DX003 (ip), vehicle: saline with Tween-80 90 % of control | dose: 25.0 mg/kg/injection, schedule: Q04DX003 (ip), vehicle: saline with Tween-80 107 % of control | dose: 50.0 mg/kg/injection, schedule: Q04DX003 (ip), vehicle: saline with Tween-80 91 % of control

CC(c1ccccc1O)C1CCCCC1N=O (stereo not drawn)
inactive: dose: 100.0 mg/kg/injection, schedule: Q04DX002 (ip), vehicle: Klucel (hydroxypropylcellulose) (HPC) 105 % of control | dose: 200.0 mg/kg/injection, schedule: Q04DX002 (ip), vehicle: Klucel (hydroxypropylcellulose) (HPC) 102 % of control | dose: 400.0 mg/kg/injection, schedule: Q04DX002 (ip), vehicle: Klucel (hydroxypropylcellulose) (HPC) 98 % of control

CCC(=O)OC(OC(=O)CC)c1cccc2ccccc12
inactive: dose: 222.0 mg/kg/injection, schedule: Q01DX Z (ip), vehicle: saline 90 % of control | dose: 333.0 mg/kg/injection, schedule: Q01DX Z (ip), vehicle: saline 86 % of control | dose: 500.0 mg/kg/injection, schedule: Q01DX Z (ip), vehicle: saline 95 % of control

O=C1CCOc2ccc(Cl)cc21
inactive: [1] 95 % of control | [3] 101 % of control | [5] 106 % of control

CCO/C(C)=C(/C(C)=O)C(=O)NC1CCCCC1
inactive: [14] 100 % of control | [10] 101 % of control | [17] 100 % of control | [11] 95 % of control | [19] 102 % of control | [12] 98 % of control

CCC(N)C(O)C(F)(F)C(F)(F)C(F)(F)F (stereo not drawn)
inactive: [7] 112 % of control | [8] 103 % of control

CC1CC([O-])=N/[N+]1=C\c1ccccc1 (stereo not drawn)
inactive: [7] 97 % of control | [14] 96 % of control | [8] 95 % of control | [17] 87 % of control | [9] 97 % of control

Cn1c2c(c3ccccc31)C(=C(c1ccccc1)c1ccccc1)c1ccccc1-2
inactive: [15] 87 % of control | [18] 87 % of control

COc1cc(/C=C/[N+](=O)[O-])ccc1O
inactive: dose: 25.0 mg/kg/injection, schedule: Q01DX009 (ip), vehicle: Klucel (hydroxypropylcellulose) (HPC) 98 % of control | dose: 50.0 mg/kg/injection, schedule: Q01DX009 (ip), vehicle: Klucel (hydroxypropylcellulose) (HPC) 98 % of control | [1] 102 % of control and 103 % of control

C=CCN(CC=C)/N=N/c1[nH]ncc1C(=O)OCC
inactive: [13] 100 % of control | [14] 106 % of control | [16] 92 % of control | [17] 100 % of control | dose: 400.0 mg/kg/injection, schedule: Q01DX001 (ip), vehicle: saline with Tween-80 101 % of control | [19] 104 % of control

CCCCOCCCNC(F)(F)C(=O)Nc1ccc(S(=O)(=O)c2ccc(NC(=O)C(F)(F)NCCCOCCCC)cc2)cc1
inactive: [7] 113 % of control | [8] 97 % of control | [9] 94 % of control

Cc1nc2ccc(NC(=O)c3ccccc3)cc2o1
inactive: [2] 105 % of control | [4] 105 % of control | [6] 100 % of control
